The values below come from patent publication US20220402982A1, “POLYPEPTIDE FRAGMENT D (MP-D) AND USE THEREOF” (SHANGHAI LONGXIN BIOMEDICAL TECHNOLOGY CO., LTD., priority 2021, published 2022).

Assay [1] concerns DSS-induced IBD in mice. Put plainly: Colon length in DSS-induced acute IBD mouse model. Format: in vivo, male C57BL6 mice. Particulars: 50 μg/kg intragastrically, 7 days pre-administration, then daily together with 2.5 wt % DSS; x±SD; model group 5.3±0.6, blank control 9.4±0.6; in cm (unit assumed). The protocol:
(§1) The administration of a DSS solution with a specified concentration to mice can induce an acute IBD model characterized by diarrhea, hematochezia, ulcer, and granulocyte infiltration. Mice were randomly grouped according to body weights of the mice. 40 healthy male C57BL6 mice were divided into four groups each with 10 mice:
(§2) blank control group: the mice were each intragastrically administered with water every day at a volume of 0.4 mL/20 g;
(§3) model group: the mice were each intragastrically administered with a DSS aqueous solution of a mass fraction of 2.5 wt % consecutively for 7 days, where the DSS aqueous solution was freshly prepared and changed every day; […]
The body weight changes of mice in each group were recorded every day to determine whether the acute IBD mouse model was successfully established.
(§4) A mouse colon between an anus end to an ileocecal end was integrally collected, and a length of the colon was measured; and the colon was dissected along a longitudinal axis, feces therein was rinsed off, and then the colon was stored in 4% […] or frozen at −80° C. […]

For assay [2], the system named is DSS-induced IBD in mice. The assay can be described thus: Colonic histopathological evaluation (HE staining, scoring) in DSS-induced acute IBD mouse model. Format: in vivo, male C57BL6 mice. Particulars: 50 μg/kg intragastrically, 7 days pre-administration, then daily together with 2.5 wt % DSS; x±SD; model group 7.4±0.6, blank control 0.0±0.0. The protocol: as §1, §2, §3, §4
Experimental data in the above experimental method were expressed as (x±SD), the GraphPad Prism (ver. 8.0, GraphPad Software Inc., San Diego, Calif., USA) was used to plot a chart, the SPSS Program (ver. 25.0, SPSS Inc., Chicago, Ill., USA) was used for statistical test, and one-way ANOVA or independent two-sample t-test were used for significance test when the normality and homogeneity of variances were met. […]

On to “THTVGSYFQVQNGYVGAFSRALGNNEYAMNS (THTVGSYFXVQNGYVGAFSXALGNXEYAMNS; Sequence is synthesized; (9)..(9) Xaa can be Tyr, Val, Gly, Ser, Gln, or absent; (20)..(20) Xaa can be Ser, Gln, Glu, Tyr, Arg, or absent; (25)..(25) Xaa can be Asn, Thr, Ser, Pro, Leu, or absent) [MP-D]”, for which the colon length with DSS-induced IBD in mice [1] is 8.0±0.9. The molecule further yielded a colonic histopathologic score in the assay with DSS-induced IBD in mice [2] of 1.3±0.6.

B1: THTVGSYFSVQNGYVGAFSQALGNSEYAMNSPLGSLDGRTTMYNLLGVKYLFAREDQLKKQ (peptide, listed as Lactobacillus plantarum)
chain: THTVGSYFSVQNGYVGAFSQALGNSEYAMNSPLGSLDGRTTMYNLLGVKYLFAREDQLKKQ
notes: positive control
Turning to B1, the colon length in the assay on DSS-induced IBD in mice [1] is reported as 7.9±0.5. The molecule also registered a colonic histopathologic score in the assay with DSS-induced IBD in mice [2] of 2.4±0.8.
